Experimental data published in US20100285509A1, “Melanoma-Associated Endogenous Retrovirus (MERV) Derived Peptide Sequences And Their Therapeutic/Diagnostic Use” (priority 2005, published 2010).
Where no end group is shown, it is not given here.

Assays:
Assay type in all cases: binding, human
[1] = tested on: melanoma sera pool; test: Epitope screening ELISA of biotinylated peptides with melanoma sera pool; details: FIG. 2
Protocol: FIG. 2: Selected candidate peptides by Epitope prediction were tested with a melanoma sera pool and a reference sera pool respectively. The mouse derived control peptides K1 (Biotin-SGSG-KPLAQ-NH2) and K2 (Biotin-SGSG-GLAQ-NH2) were used as negative and positive control peptides. ELISA readout of patient sera pool (black bars) given as absorbance determined at 405 nm. All given A405 nm values refer to the measured A405 nm value of each sample minus the blank.
Serum specimens were collected from melanoma patients (diagnosis confirmed by histopathology) at the Department of Dermatology, Medical University of Vienna, Austria. Staging of patients and according classification of sera followed the 2001 US Joint Committee on Cancer guidelines (Balch 2001). Usage of patient sera was approved by the ethical committee of the Medical University of Vienna, confidentially of the study subjects has been protected by respective sample coding. Sera from healthy donors served as negative controls. All sera were stored at −20° C. immediately after blood withdrawal. Melanoma patient derived sera pools and respective reference sera pools from healthy subjects were used for epitope screening and further peptide testing.
Streptavidin-coated 96-well microtiter plates (Mimotopes Pty Ltd., Australia) were blocked with 200 μl/well of 2% bovine albumine (Sigma-Aldrich) in PBST (PBS [0.1 M sodium phosphate, 0.15 M NaCl, pH 7.0]+0.1% v/v Tween20 (PBST)) over night at 4° C. The wells were then washed four times with PBST and incubated with 100 μl/well of 1:500 diluted biotinylated peptides for 2 hours at room temperature. 2 wells per plate were incubated with PBST in the absence of peptide (blank wells). Plates were washed 4 times with PBST. Subsequently, 100 μl of a melanoma-sera pool, diluted 1:40 in 1% bovine albumine/PBST and a reference serum pool (1:40) were added to each well and incubated for 2 h at room temperature. The plate was washed 4 times with PBST and incubated with 100 μl/well of the secondary antibody: goat anti-human IgG (h+l) antibody alkaline-phosphatase conjugated (BETHYL Laboratories, Inc., USA). Detection antibody was diluted 1:1000 in blocking solution and incubated for 1 hour. After 6 washing steps with PBST, 200 μl of a 1.0 mg/ml p-Nitrophenylphosphat substrate solution in 0.2 M Tris-buffer (Sigma-Aldrich) was added to each well. Absorbance was measured on a BDSL Immunoskan PLUS at 405 nm.
During initial screening of various peptides reactive peptides to the melanoma patient derived sera pool were selected and also validated by determining the reactivity to the reference sera pool obtained from healthy volunteers. […] These peptides were tested to determine the experimental antigenicity.

[2] = tested on: melanoma sera pool; test: Peptide testing ELISA, unbiotinylated peptides coated on Nunc Maxisorp F plates; details: for absorbance (A405 nm): melanoma sera pool dilution 1:50
Protocol: FIG. 5: Reactivity of serum antibodies with 2 MERV specfic partial overlapping peptides (GHB-G1 and GHB-H1) and 1 autoimmune-related peptide (GHB-17′) tested with 3 different melanoma-sera and reference sera pool dilutions respectively. An HIV peptide was used as negative control peptide. All given A405 nm values refer to the measured A405 nm value of each sample minus the blank.
NUNC Maxisorp F plates were coated with 1.0 μg peptide/well in 100 μl coating buffer (0.1 M sodium carbonate buffer, pH 9.5). 1 well per plate was coated with 100 μl of coating buffer without antigen (blank well). Plates were incubated over night at 4° C. Then plates were washed four times with PEST. Unspecific binding sites were blocked with 200 μl/well of 2% bovine albumine (Sigma-Aldrich) in PBST (PBS+0.1% v/v Tween20 (PBST)) for 1 hour at room temperature. The plates were washed 4 times with PBST. For the assay 100 μl/well of three different sera pool-dilutions (1:50, 1:200, 1:1600) diluted in 1% bovine albumine/PBST were added and incubated for 2 h at room temperature. Plates were washed 4 times with PBST and incubated with 100 μl/well of the secondary antibody: goat anti-human IgG (h+l) antibody alkaline-phosphatase conjugated, obtained from BETHYL Laboratories, Inc., USA (detection antibody was diluted 1:1000 in blocking solution) for 1 hour. After additional 6 times washing step with PBST, color was developed with 200 μl/well of a 1.0 mg/ml p-Nitrophenylphosphat substrate solution in 0.2 M Tris-buffer (Sigma-Aldrich). Absorbance was measured on a BDSL Immunoskan PLUS at 405 nm.
The peptides were tested with the same sera pools as given for the experiments above. As negative control peptide an HIV-derived peptide ([…]) with 1 μg/well was used.
Herve et al. characterise retroviral peptides in the context of autoimmune diseases. […] All three peptides were tested with three melanoma sera pool dilutions ([…], 1:200 and 1:1600). Peptides were coated on Nunc Maxisorp F plates and used to capture serum antibodies, which were then detected using goat anti-human IgG antibodies as shown in FIG. 5. […] GHB-G1 gave a signal of 1.50 even at a melanoma: sera pool dilution 1:200.

[3] = tested on: melanoma sera pool; test: Epitope mapping ELISA of 25 overlapping env-peptides (FIG. 4); details: A405 nm melanoma sera pool minus reference sera pool
Text: FIG. 4: Epitope mapping of 25 overlapping env-peptides tested with a patient sera pool and a reference sera pool as described above. The first bar represents amino acid 204-220, the second bar represents amino acid 205-221, etc. Del A405 nm refers to the measured A405 nm values of the melanoma sera pool minus the A405 nm values of the reference sera pool of each peptide. One experiment of two performed is shown. Mean values from duplicate trials are shown.
Streptavidin-coated 96-well microtiter plates (Mimotopes Pty Ltd., Australia) were blocked with 200 μl/well of 2% bovine albumine (Sigma-Aldrich) in PBST (PBS [0.1 M sodium phosphate, 0.15 M NaCl, pH 7.0]+0.1% v/v Tween20 (PBST)) over night at 4° C. The wells were then washed four times with PBST and incubated with 100 μl/well of 1:500 diluted biotinylated peptides for 2 hours at room temperature. 2 wells per plate were incubated with PBST in the absence of peptide (blank wells). Plates were washed 4 times with PBST. Subsequently, 100 μl of a melanoma-sera pool, diluted 1:40 in 1% bovine albumine/PBST and a reference serum pool (1:40) were added to each well and incubated for 2 h at room temperature. […] Absorbance was measured on a BDSL Immunoskan PLUS at 405 nm. […]

[4] = tested on: serum samples from melanoma patients; test: Optimised ELISA on individual serum samples from melanoma patients; details: 31 melanoma serum samples; positive = value of 0.39 or above
Protocol: NUNC Polysorp F Peptide Immobiliser plates were coated with 0.125 μg peptide/well in 100 μl coating buffer ((0.1 M sodium carbonate buffer, pH 9.5). Plates were incubated over night at 4° C. Plates were then washed four times with PBST and unspecific binding sites were blocked with 200 μl/well of 2% bovine albumine (Sigma-Aldrich) in PBST (PBS+0.1% v/v Tween20 (PBST)) for 1 hour at room temperature. The plates were washed 4 times with PBST. For the assay 100 μl/well of serial-dilutions of the sera (initial dilution 1:200 in 1% bovine albumine/PBST were added and incubated for 2 h at room temperature. Plates were washed 4 times with PEST and incubated with the secondary antibody (100 μl/well). As secondary antibody an alkaline-phosphatase conjugated goat anti-human IgG (h+1) (BETHYL Laboratories, Inc., USA) diluted 1:1000 in blocking solution was used. Incubation period was 1 hour. After another 6 washing steps with PBST, the substrate was added (1.0 mg/ml p-Nitrophenylphosphat Sigma-Aldrich) in 0.2 M Tris-buffer 200 μl/well) Absorbance was measured on a BDSL Immunoskan PLUS at 405 nm.
For analysis of serum samples from melanoma patients, Nunc Polysorp Immobilizer Amino plates were used. […] 16 serum samples from healthy individuals served as controls to establish a negative treshold, as calculated by the average absorbance plus three standard deviations. […]

Sequence	reactivity ranking among the 46 tested peptides [1]	absorbance (A405 nm) ([2]; FIG. 5)	also measured
EMQRKAPPRRRRHRNRA (also: biotinylated (site not given here)) [Peptide A1, Env aa 5-21]	most reactive	–	–
FRPKGKPCPKEIPKESK (also: biotinylated (site not given here)) [Peptide H1, Env aa 220-236]	most reactive	above 0.50	–
PAELQYRPPPESQYGYP (also: biotinylated (site not given here)) [Peptide E3, Gag aa 219-235]	most reactive	–	–
PWGWGEKGISTPRPKIV (also: biotinylated (site not given here)) [Peptide E2, Env aa 312-328]	most reactive	–	–
SYQRSLKFRPKGKPCPKEIP (Melanoma Associated Endogenous Retrovirus) [SEQ ID NO 69, unbiotinylated 20-mer covering peptides 10-13, env aa 213-232]	–	–	reactivity compared to unbiotinylated 17-mer peptide G1 ([2]; unbiotinylated peptides, independent experiment): did not exhibit a significant improvement
YQRSLKFRPKGKPCPKE (Melanoma Associated Endogenous Retrovirus) [Peptide G1, Env aa 214-230]	most reactive	~1.50	reactivity (Del A405 nm) [3]: lower absorbance in the assay than the three neighbour peptides; absorbance signal (A405 nm) ([2]; melanoma sera pool dilution 1:200, FIG. 5): 1.50; melanoma sera that did not recognise the epitope [4]: 16; melanoma serum samples reacting positive [4]: 15 out of the 31
